Assay results from publication PMC9654711, “Neuroprotective Action of Coumarin Derivatives through Activation of TRKB-CREB-BDNF Pathway and Reduction of Caspase Activity in Neuronal Cells Expressing Pro-Aggregated Tau Protein” (International Journal of Molecular Sciences, 2022).

Legend:
[1] = Oxygen radical antioxidant capacity (ORAC) assay; settings: compound at 100 μM
Experimental: In addition, an oxygen radical antioxidant capacity (ORAC) assay was performed using an OxiSelect™ kit according to the manufacturer’s instruction (Cell Biolabs, San Diego, CA, USA). Briefly, Trolox standards (2.5–50 μM) and samples (4–100 μM) were diluted with 50% acetone. Blank (50% acetone), standards and samples were mixed with fluorescein and incubated at 37 °C for 30 min. Following the free radical initiator 2,2′-azobis(2-methylpropionamidine) dihydrochloride (AAPH), the produced peroxyl radicals (ROO•) quench the fluorescent probe over time. Antioxidants present in the assay block the peroxyl radical oxidation of the fluorescent probe. The course of the reaction was recorded for 60 min, with one measurement every five minutes using a BioTek FLx800 microplate reader. The excitation and emission wavelengths were set at 480 nm and 520 nm, respectively. To quantify the oxygen radical antioxidant activity in a sample, the area under the curve (AUC) for blank, standard and samples was calculated. After subtraction of the blank, the equivalent Trolox concentrations of samples were expressed based on the Trolox standard curve.

[2] = High-content analysis of ΔK280 tauRD-DsRed fluorescence and cell number (folding reporter); type: cell-based, human; settings: human; induced ΔK280 tauRD-DsRed SH-SY5Y; compounds 2.5–10 µM; read-out: IC50 cytotoxicity based on the cell number analyzed
Experimental: On day 1, ∆K280 tauRD-DsRed SH-SY5Y cells were seeded in a 96-well plate (3 × 10^4/well), with retinoic acid (10 µM; Sigma-Aldrich) added to induce neuronal differentiation. […] […] For ROS measurement, dichloro-dihydro-fluorescein diacetate (DCFH-DA, 10 µM; Invitrogen, Carlsbad, CA, USA) was added to the cells on day 8 and incubated at 37 °C for 30 min.

[3] = tested on: ΔK280 tauRD-DsRed SH-SY5Y cells; assay: High-content analysis of neurite outgrowth; type: cell-based, human; settings: 10 µM; for Neurite branching: induced untreated 0.87, uninduced 0.99; for Neurite length: induced untreated 27.2 μm, uninduced 30.9 μm
Experimental: As described, ∆K280 tauRD-DsRed SH-SY5Y cells were seeded in a 24-well plate (5 × 10^4/well) with retinoic acid addition on day 1, treated with tested compounds (10 µM) and ∆K280 tauRD-DsRed expression was induced with doxycycline (2 μg/mL) on day 2. On day 8, after being fixed in 4% paraformaldehyde for 15 min, permeabilized in 0.1% Triton X-100 for 10 min and blocked in 3% bovine serum albumin (BSA) for 20 min, the cells were stained with TUBB3 (neuronal class III β-tubulin) primary antibody (1:1000; BioLegend, San Diego, CA, USA) at 4 °C overnight, followed by goat anti-rabbit Alexa Fluor® 555 secondary antibody (1:1000; Molecular probes) at room temperature for 2 h, with 4′-6-diamidino-2-phenylindole (DAPI, 0.1 µg/mL; Sigma-Aldrich) included for nuclei staining. Neuronal images were captured using the high-content analysis system as described. Neurite total length (μm), processes (primary neurite extensions projecting directly from the cell body) and branching (points at which primary neurites bifurcated) were analyzed using Neurite Outgrowth Application Module (MetaXpress; Molecular Devices). Around 5000 cells were analyzed in each of three independent experiments for each sample.

[4] = biological target: T1, TRKB-ECD-His (extracellular domain of TRKB) (Homo sapiens, UniProt Q16620); assay: Tryptophan fluorescence quenching assay; settings: TRKB-ECD-His 50 nM in PBS; excitation 295 nm, emission 330 nm; compounds 0–1000 nM; read-out: TRKB-ECD binding affinity (KD)
T1 construct: extracellular domain of TRKB (TRKB-ECD) (residues 32–429, XP_016870240); Saccharomyces cerevisiae α-factor secretion signal (N, cleaved yes); made in house; host or cells: Pichia pastoris
Description: The cDNA fragment containing the full-length extracellular domain of TRKB (TRKB-ECD) (residues 32–429, XP_016870240) was amplified from pDONR223-NTRK2 plasmid (Addgene, Watertown, MA, USA) using forward primer 5′-ctcgagaaaagagaggctgaagctTGTCCCACGTCCTGAAATG (XhoI site and Kex2 cleavage of the signal sequence in lowercase letters) and reverse primer 5′-gtcgac[…] (SalI site in lowercase letters). After cloning and sequencing, the TRKB-ECD fragment was excised with XhoI and SalI and subcloned into Pichia expression vector pGAPZα A (Invitrogen). The AvrII-linearized plasmid was then transformed into Pichia pastoris, and stable transformants selected and cultured at 30 °C for 4 days for constitutive expression of recombinant His-tagged TRKB-ECD. The secreted TRKB-ECD-His in cultured medium was purified using Ni-NTA His•Bind resins (Novagen, Madison, WI 53719, USA) according to the supplier’s instructions. Protein purity was examined by Coomassie blue staining of SDS-polyacrylamide gel as well as immunoblotting using anti-His (1:2000; Acris, Herford, Germany) and anti-TRKB (1:1000; Cell Signaling) antibodies.
The interaction between TRKB-ECD-His and LM-031, LMDS-1 or LMDS-2 was determined by tryptophan fluorescence titration. 7,8-DHF (Sigma-Aldrich) was included as a positive control. Tryptophan fluorescence spectra of TRKB-ECD-His (50 nM in PBS) were obtained before and after titration with different concentrations of test compounds (0–1000 nM). The fluorescent quenching was conducted in a cuvette with a 1 cm path length cell by an F-7000 fluorescence spectrophotometer (Hitachi, Tokyo, Japan) at room temperature. The intrinsic fluorescence spectra of TRKB were recorded with excitation wavelength set at 295 nm and emission wavelength in the range 300–400 nm. The dissociation constant (KD) of 7,8-DHF, LM-031, LMDS-1 and LMDS-2 to TRKB was determined by fitting the normalized fluorescence intensity at 330 nm under different concentrations of test compounds using the equation derived from Liu et al.:KD = [P]T (f − 1) + [D]T (1/f − 1), where f is the fractional change, and [P]Tand [D]Tare the total concentration of TRKB-ECD-His protein and test compound, respectively.

T1 sequence (Q16620 32-429): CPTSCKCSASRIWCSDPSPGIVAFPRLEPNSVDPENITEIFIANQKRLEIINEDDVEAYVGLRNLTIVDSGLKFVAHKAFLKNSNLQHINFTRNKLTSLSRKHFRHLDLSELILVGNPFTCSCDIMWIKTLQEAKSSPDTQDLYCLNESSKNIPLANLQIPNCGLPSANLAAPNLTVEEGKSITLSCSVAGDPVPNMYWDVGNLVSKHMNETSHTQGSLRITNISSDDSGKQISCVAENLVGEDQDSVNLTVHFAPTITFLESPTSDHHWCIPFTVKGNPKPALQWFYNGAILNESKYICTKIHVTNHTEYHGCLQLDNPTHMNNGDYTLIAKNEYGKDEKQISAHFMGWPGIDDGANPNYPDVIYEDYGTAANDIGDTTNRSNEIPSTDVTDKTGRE

Q: Which “Oxygen radical absorbance capacity, activity equivalent to Trolox” value [1] does the source give for `O=C(c1ccccc1)c1cc2c(O)cccc2oc1=O` [LM-031, 3-benzoyl-5-hydroxychromen-2-one] here?
A: 51 μM Trolox

Q: And the IC50 at 6 days [2]?
A: 43 µM

Q: What about the Neurite branching [3] of the same compound?
A: 1.00–1.06

Q: And the Neurite length [3]?
A: 30.3–31.5 μm

Q: And the Kd [4]?
A: 12.7 ± 2.8 nM

Q: Which results are given for `CCOc1ccc2cc(C(=O)c3ccccc3)c(=O)oc2c1` [LMDS-1]?
A: Oxygen radical absorbance capacity, activity equivalent to Trolox [1]: 10 μM Trolox; IC50 at 6 days [2]: 25 µM; Neurite branching [3]: 1.00–1.06; Neurite length [3]: 30.3–31.5 μm; Kd [4]: 8 ± 17 nM

Q: For `O=C(c1ccccc1)c1cc2ccc(O)cc2oc1=O` [LMDS-2], which “Oxygen radical absorbance capacity, activity equivalent to Trolox” value [1] is on record?
A: 15 μM Trolox

Q: What about the IC50 at 6 days [2] of the same compound?
A: 24 µM

Q: What about the Neurite branching [3] of the same compound?
A: 1.00–1.06

Q: What about the Neurite length [3] of the same compound?
A: 30.3–31.5 μm

Q: What about the Kd [4] of the same compound?
A: 6.5 ± 6.6 nM
